US20170334899A1, “AMINO-SUBSTITUTED ISOTHIAZOLES” (Bayer Pharma Aktiengesellschaft, priority 2014, published 2017)

system: HeLa; test: Proliferation assay (crystal violet), HeLa; type: cell-based; conditions: Homo sapiens, HeLa, 96 h, HeLa cells; 4 days incubation; crystal violet staining; read-out: IC50 inhibition of proliferation, HeLa
In short: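 Seed 1000–5000 cells/well, 10% FCS; 24 h later replace medium and add compound (0.001–10 μM, 0.5% DMSO); incubate 4 d; glutaraldehyde fix, 0.1% crystal violet pH 3.0, elute with 10% acetic acid; A595; 4-parameter IC50.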

SMILES	IC50
Cc1nsc(Nc2cnc(C(F)(F)F)cn2)c1C(=O)Nc1ccc(C(=O)N2CCN(CC(F)(F)F)CC2)cc1 [Example 260, 3-methyl-N-(4-{[4-(2,2,2-trifluoroethyl)piperazin-1-yl]carbonyl}phenyl)-5-{[5-(trifluoromethyl)pyrazin-2-yl]amino}-1,2-thiazole-4-carboxamide]	1.5 µM
Cc1nsc(Nc2cnc3ccccc3n2)c1C(=O)Nc1cccc(NS(=O)(=O)C2CCN(C(=O)OC(C)(C)C)C2)c1 (centres unmarked) [Example 290, tert-butyl 3-{[3-({[3-methyl-5-(quinoxalin-2-ylamino)-1,2-thiazol-4-yl]carbonyl}amino)phenyl]sulfamoyl} pyrrolidine-1-carboxylate]	8.8 µM
Cc1nsc(Nc2cnc3ccccc3n2)c1C(=O)Nc1cccc(NS(=O)(=O)C2CN(CC(F)F)C2)c1 [Example 286, N-[3-({[1-(2,2-difluoroethyl)azetidin-3-yl]sulfonyl}amino)phenyl]-3-methyl-5-(quinoxalin-2-ylamino)-1,2-thiazole-4-carboxamide]	10 µM
Cc1nsc(Nc2cncc(C(F)(F)F)n2)c1C(=O)Nc1ccc(F)c(OC2CCN(CC(F)(F)F)CC2)c1 [Example 267, N-(4-fluoro-3-{[1-(2,2,2-trifluoroethyl)piperidin-4-yl]oxy}phenyl)-3-methyl-5-{[6-(trifluoromethyl)pyrazin-2-yl]amino}-1,2-thiazole-4-carboxamide]	0.58 µM
Cc1nsc(Nc2cnc(C(F)(F)F)cn2)c1C(=O)Nc1ccc(F)c(OCCCNCCC(F)(F)F)c1 [Example 307, N-(4-fluoro-3-{3-[(3,3,3-trifluoropropyl)amino]propoxy}phenyl)-3-methyl-5-{[5-(trifluoromethyl)pyrazin-2-yl]amino}-1,2-thiazole-4-carboxamide]	0.69 µM
Cc1nsc(Nc2cnc(C(F)(F)F)cn2)c1C(=O)Nc1ccc(F)c(OC2CCN(CC(F)F)C2)c1 (centres unmarked) [Example 314, N-(3-{[1-(2,2-difluoroethyl)pyrrolidin-3-yl]oxy}-4-fluorophenyl)-3-methyl-5-{[5-(trifluoromethyl)pyrazin-2-yl]amino}-1,2-thiazole-4-carboxamide]	0.41 µM
Cc1nsc(Nc2cc(C#N)ccn2)c1C(=O)Nc1ccc(OC2CCN(C(=O)OC(C)(C)C)CC2)nc1 [Example 23, tert-Butyl 4-({5-[({5-[(4-cyanopyridin-2-yl)amino]-3-methyl-1,2-thiazol-4-yl}-carbonyl)amino]pyridin-2-yl}oxy)piperidine-1-carboxylate]	2.6 µM
CCNC(=O)c1cccc(NC(=O)c2c(C)nsc2Nc2ccc(C#N)cn2)c1 [Example 252, 5-[(5-cyanopyridin-2-yl)amino]-N-[3-(ethylcarbamoyl)phenyl]-3-methyl-1,2-thiazole-4-carboxamide]	> 10 µM
Cc1nsc(Nc2cnc3ccccc3n2)c1C(=O)Nc1cccc(C(=O)NC(C)C)c1 [Example 253, N-[3-(isopropylcarbamoyl)phenyl]-3-methyl-5-(quinoxalin-2-ylamino)-1,2-thiazole-4-carboxamide]	3.1 µM
Cc1nsc(Nc2cnc(C(F)(F)F)cn2)c1C(=O)Nc1ccc(F)c(OC2CCN(CCF)CC2)c1 [Example 266, N-(4-fluoro-3-{[1-(2-fluoroethyl)piperidin-4-yl]oxy}phenyl)-3-methyl-5-{[5-(trifluoromethyl)pyrazin-2-yl]amino}-1,2-thiazole-4-carboxamide]	0.31 µM
Cc1nsc(Nc2cnc3ccccc3n2)c1C(=O)Nc1cccc(NS(=O)(=O)C2CCN(CC(F)(F)F)CC2)c1 [Example 281, 3-methyl-5-(quinoxalin-2-ylamino)-N-[3-({[1-(2,2,2-trifluoroethyl)piperidin-4-yl]sulfonyl}amino)phenyl]-1,2-thiazole-4-carboxamide]	8 µM
CCN1CCC(Oc2ccc(NC(=O)c3c(C)nsc3Nc3cc(C#N)ccn3)cn2)CC1 [Example 26, 5-[(4-Cyanopyridin-2-yl)amino]-N-{6-[(1-ethylpiperidin-4-yl)oxy]pyridin-3-yl}-3-methyl-1,2-thiazole-4-carboxamide]	10 µM
Cc1nsc(Nc2cnc(C(F)(F)F)cn2)c1C(=O)Nc1ccc(N(C)C)c(OCCCN(C)CCC(F)(F)F)c1 [Example 300, N-[4-(dimethylamino)-3-{3-[methyl(3,3,3-trifluoropropyl)amino]propoxy}phenyl]-3-methyl-5-{[5-(trifluoromethyl)pyrazin-2-yl]amino}-1,2-thiazole-4-carboxamide]	0.55 µM
Cc1nsc(Nc2cncc(C(F)(F)F)n2)c1C(=O)Nc1ccc(F)c(OC2CCN(CC(F)F)CC2)c1 [Example 268, N-(3-{[1-(2,2-difluoroethyl)piperidin-4-yl]oxy}-4-fluorophenyl)-3-methyl-5-{[6-(trifluoromethyl)pyrazin-2-yl]amino}-1,2-thiazole-4-carboxamide]	0.31 µM
Cc1nsc(Nc2cncc(C(F)(F)F)n2)c1C(=O)Nc1ccc(OC2CCN(CCC(F)(F)F)CC2)nc1 [Example 304, 3-methyl-5-{[6-(trifluoromethyl)pyrazin-2-yl]amino}-N-(6-{[1-(3,3,3-trifluoropropyl)piperidin-4-yl]oxy}pyridin-3-yl)-1,2-thiazole-4-carboxamide]	0.36 µM
Cc1nsc(Nc2cncc(C(F)(F)F)n2)c1C(=O)Nc1ccc(C(=O)NC2CN(CC(F)(F)F)C2)cc1 [Example 280, 3-methyl-N-(4-{[1-(2,2,2-trifluoroethyl)azetidin-3-yl]carbamoyl}phenyl)-5-{[6-(trifluoromethyl)pyrazin-2-yl]amino}-1,2-thiazole-4-carboxamide]	> 10 µM

More lines, now with the values ahead:

IC50	SMILES
0.78 µM	Cc1nsc(Nc2cnc(C(F)(F)F)cn2)c1C(=O)Nc1ccc(F)c(OC2CCN(CC(F)(F)F)C2)c1 (centres unmarked) [Example 315, N-(4-fluoro-3-{[1-(2,2,2-trifluoroethyl)pyrrolidin-3-yl]oxy}phenyl)-3-methyl-5-{[5-(trifluoromethyl)pyrazin-2-yl]amino}-1,2-thiazole-4-carboxamide]
1.3 µM	Cc1nsc(Nc2cnc(C(F)(F)F)cn2)c1C(=O)Nc1ccc(OCCCNCCC(F)(F)F)nc1 [Example 294, 3-methyl-5-{[5-(trifluoromethyl)pyrazin-2-yl]amino}-N-(6-{3-[(3,3,3-trifluoropropyl)amino]propoxy}pyridin-3-yl)-1,2-thiazole-4-carboxamide]
6.2 µM	Cc1nsc(Nc2cnc3ccccc3n2)c1C(=O)Nc1cccc(NS(=O)(=O)C2CCN(CC(F)F)CC2)c1 [Example 282, N-[3-({[1-(2,2-difluoroethyl)piperidin-4-yl]sulfonyl}amino)phenyl]-3-methyl-5-(quinoxalin-2-ylamino)-1,2-thiazole-4-carboxamide]
7.6 µM	CC(=O)N1CCC(Oc2ccc(NC(=O)c3c(C)nsc3Nc3cnc4ccccc4n3)cn2)CC1 [Example 22, N-{6-[(1-acetylpiperidin-4-yl)oxy]pyridin-3-yl}-3-methyl-5-(quinoxalin-2-ylamino)-1,2-thiazole-4-carboxamide]
0.84 µM	Cc1nsc(Nc2cncc(C(F)(F)F)n2)c1C(=O)Nc1ccc(F)c(OC2CCN(CCF)CC2)c1 [Example 269, N-(4-fluoro-3-{[1-(2-fluoroethyl)piperidin-4-yl]oxy}phenyl)-3-methyl-5-{[6-(trifluoromethyl)pyrazin-2-yl]amino}-1,2-thiazole-4-carboxamide]
6.2 µM	Cc1nsc(Nc2cnc3ccccc3n2)c1C(=O)Nc1cccc(C(=O)NC2CC2)c1 [Example 249, N-[3-(cyclopropylcarbamoyl)phenyl]-3-methyl-5-(quinoxalin-2-ylamino)-1,2-thiazole-4-carboxamide]
0.62 µM	Cc1nsc(Nc2cnc(C(F)(F)F)cn2)c1C(=O)Nc1ccc(OC2CCN(C(CF)CF)C2)nc1 (centres unmarked) [Example 313, N-(6-{[1-(1,3-difluoropropan-2-yl)pyrrolidin-3-yl]oxy}pyridin-3-yl)-3-methyl-5-{[5-(trifluoromethyl)pyrazin-2-yl]amino}-1,2-thiazole-4-carboxamide]
> 10 µM	Cc1nsc(Nc2cnc(C(F)(F)F)cn2)c1C(=O)Nc1ccc(C(=O)NC2CCN(CC(F)F)CC2)cc1 [Example 259, N-(4-{[1-(2,2-difluoroethyl)piperidin-4-yl]carbamoyl}phenyl)-3-methyl-5-{[5-(trifluoromethyl)pyrazin-2-yl]amino}-1,2-thiazole-4-carboxamide]
0.68 µM	Cc1nsc(Nc2cnc(C(F)(F)F)cn2)c1C(=O)Nc1ccc(F)c(OCC2CCN(C(CF)CF)C2)c1 (centres unmarked) [Example 320, N-(3-{[1-(1,3-difluoropropan-2-yl)pyrrolidin-3-yl]methoxy}-4-fluorophenyl)-3-methyl-5-{[5-(trifluoromethyl)pyrazin-2-yl]amino}-1,2-thiazole-4-carboxamide]
0.4 µM	Cc1nsc(Nc2cnc(C(F)(F)F)cn2)c1C(=O)Nc1ccc(F)c(OCCCN(C)CCC(F)(F)F)c1 [Example 303, N-(4-fluoro-3-{3-[methyl(3,3,3-trifluoropropyl)amino]propoxy}phenyl)-3-methyl-5-{[5-(trifluoromethyl)pyrazin-2-yl]amino}-1,2-thiazole-4-carboxamide]
4.9 µM	Cc1nsc(Nc2cncc(C(F)(F)F)n2)c1C(=O)Nc1ccc(OCCO)nc1 [Example 276, N-[6-(2-hydroxyethoxy)pyridin-3-yl]-3-methyl-5-{[6-(trifluoromethyl)pyrazin-2-yl]amino}-1,2-thiazole-4-carboxamide]
0.34 µM	Cc1nsc(Nc2cnc(C(F)(F)F)cn2)c1C(=O)Nc1ccc(F)c(OCC2CCN(CC(F)F)CC2)c1 [Example 308, N-(3-{[1-(2,2-difluoroethyl)piperidin-4-yl]methoxy}-4-fluorophenyl)-3-methyl-5-{[5-(trifluoromethyl)pyrazin-2-yl]amino}-1,2-thiazole-4-carboxamide]
5.8 µM	Cc1nsc(Nc2cncc(C(F)(F)F)n2)c1C(=O)Nc1ccc(C(=O)N2CCN(CC(F)(F)F)CC2)cc1 [Example 272, 3-methyl-N-(4-{[4-(2,2,2-trifluoroethyl)piperazin-1-yl]carbonyl}phenyl)-5-{[6-(trifluoromethyl)pyrazin-2-yl]amino}-1,2-thiazole-4-carboxamide]
